US20220235012A1, “ACID ADDITION SALT OF PYRIMETHAMINE” (GLG PHARMA S.A., priority 2018, published 2022)
Where a name gives a salt, the structure may show the parent alone.

What was measured:
[1] = Solubility in terms of Ph. Eur. 9.2 (approximate volume of solvent per gram of solute); format: physicochemical; settings: descriptive term
Procedure: The solubility of pyrimethamine salts with different organic and mineral acids was evaluated according to the general recommendations described in Ph. Eur. 9.2 for the pharmaceutical active ingredients. The “solubility” ° according to Ph. Eur. 9.2, is the approximate volume of solvent in millilitres per gram of solute.

[2] = Solubility of pyrimethamine salts, own method at 20° C. and 60° C. in water, 10% Tween 80 and 10% Cremophor RH 40; format: physicochemical; settings: without surfactant and/or emulsifier
[3] = cited from earlier work

Row | SMILES | Solubility in terms of Ph. Eur. 9.2 [1] | solubility in water at ambient temperature [2] | solubility of pyrimethamine in water [3]
1 | CCc1nc(N)nc(N)c1-c1ccc(Cl)cc1 [Methanesulfonate, methanesulfonic acid salt of 5-(4-chlorophenyl)-6-ethyl-2,4-pyrimidinediamine] | Sparingly soluble | freely soluble | –
2 | CCc1nc(N)nc(N)c1-c1ccc(Cl)cc1 [pyrimethamine, 5-(4-chlorophenyl)-6-ethyl-2,4-pyrimidinediamine] | – | – | 10 µg/mL
